# From US7112590B2, “Thrombin inhibitors” (LEK Pharmaceuticals d.d., priority 2000, dated 2006)
row,melting point,SMILES
1,117 to 120 °C,"Nc1ncc2c(n1)CCC(NC(=O)[C@@H]1CCCN1C(=O)[C@@H](Cc1ccccc1)NS(=O)(=O)Cc1ccccc1)C2 (stereo partly drawn) [Example 6, (2S)-N-(2-Amino-5,6,7,8-tetrahydro-6-quinazolinyl)-1-{(2R)-2-[(benzylsulfonyl)amino]-3-phenylpropanoyl}-2-pyrrolidinecarboxamide]"
2,127 to 130 °C,"CC(C)(C)OC(=O)N[C@H](C(=O)N1CCC[C@H]1C(=O)NC1CCc2nc(N)ncc2C1)C(c1ccccc1)c1ccccc1 (stereo partly drawn) [Example 13, tert-Butyl (1S)-2-((2S)-2-{[(2-amino-5,6,7,8-tetrahydro-6-quinazolinyl)amino]carbonyl}pyrrolidinyl)-1-benzhydryl-2-oxoethylcarbamate]"
3,120 to 123 °C,"CC(C)(C)OC(=O)N[C@H](Cc1ccccc1)C(=O)N1CCC[C@H]1C(=O)NC1CCc2nc(N)sc2C1 (stereo partly drawn) [Example 25, tert-Butyl (1R)-2-((2S)-2-{[(2-amino-4,5,6,7-tetrahydro-1,3-benzothiazol-6-yl)amino]carbonyl}pyrrolidinyl)-1-benzyl-2oxoethylcarbamate]"
4,110 to 113 °C,"CC(C)(C)OC(=O)N[C@H](Cc1ccc(Cl)c(Cl)c1)C(=O)N1CCC[C@H]1C(=O)NCC1CCc2nc(N)ncc2C1 (stereo partly drawn) [Example 61, tert-Butyl (1R)-2-[(2S)-2-({[(2-amino-5,6,7,8-tetrahydro-6-quinazolinyl)methyl]amino}carbonyl)pyrrolidinyl]1-(3,4dichlorobenzyl)-2-oxoethylcarbamate]"
5,100 to 103 °C,"CC(C)(C)OC(=O)N[C@H](Cc1ccc(Cl)c(Cl)c1)C(=O)N1CCC[C@H]1C(=O)NCC1CCc2n[nH]cc2C1 (stereo partly drawn) [Example 59, tert-Butyl (1R)-1-(3,4-dichlorobenzyl)-2-oxo-2-((2S)-2-{[(4,5,6,7-tetrahydro-2H-indazol-5-ylmethyl)amino]carbonyl}pyrrolidinyl)ethylcarbamate]"
6,118 to 121 °C,"Nc1ncc2c(n1)CCC(CNC(=O)[C@@H]1CCCN1C(=O)[C@@H](CC1CCCCC1)NS(=O)(=O)Cc1ccccc1)C2 (stereo partly drawn) [Example 57, (2S)-N-[(2-Amino-5,6,7,8-tetrahydro-6-quinazolinyl)methyl]-1-{(2R)-2-[(benzylsulfonyl)amino]-3-cyclohexylpropanoyl}-2-pyrrolidinecarboxamide]"
7,100 to 103 °C,"O=C(NCC1CCc2n[nH]cc2C1)[C@@H]1CCCN1C(=O)[C@@H](CC1CCCCC1)NS(=O)(=O)Cc1ccccc1 (stereo partly drawn) [Example 58, (2S)-1-{(2R)-2-[(Benzylsulfonyl)amino]-3-cyclohexylpropanoyl}-N-(4,5,6,7-tetrahydro-2H-indazol-5-ylmethyl)-2-pyrrolidinecarboxamide]"

# Continued, compound first:
row,SMILES,melting point
1,Cl.Cl.Nc1nc2c(s1)CC(NC(=O)[C@@H]1CCCN1C(=O)[C@@H](CC1CCCCC1)NCC(=O)O)CC2 (some centres unmarked),180 to 182 °C
2,Cl.Cl.Nc1ncc2c(n1)CCC(NC(=O)[C@@H]1CCCN1C(=O)[C@H](N)Cc1ccccc1)C2 (some centres unmarked),205 to 208 °C
3,Cl.Cl.N[C@H](C(=O)N1CCC[C@H]1C(=O)NC1CCc2n[nH]cc2C1)C(c1ccccc1)c1ccccc1 (some centres unmarked),195 to 198 °C
4,"CC(C)(C)OC(=O)CN(C(=O)OC(C)(C)C)[C@H](CC1CCCCC1)C(=O)N1CCC[C@H]1C(=O)NC1CCc2nc(N)sc2C1 (stereo partly drawn) [Example 70, tert-Butyl 2-[[(1R)-2-((2S)-2-{[(2-amino-4,5,6,7-tetrahydro-1,3-benzothiazol-6-yl)amino]carbonyl}pyrrolidinyl)-1-(cyclohexylmethyl)-2-oxoethyl](tert-butoxycarbonyl)amino]acetate]",95 to 101 °C
5,Cl.Cl.Nc1nc2c(s1)CC(NC(=O)[C@@H]1CCCN1C(=O)[C@H](N)Cc1ccccc1)CC2 (some centres unmarked),225 to 228 °C
6,Cl.Cl.Nc1ncc2c(n1)CCC(NC(=O)[C@@H]1CCCN1C(=O)[C@@H](N)C(c1ccccc1)c1ccccc1)C2 (some centres unmarked),212 to 215 °C
7,Cl.Cl.Nc1ncc2c(n1)CCC(CNC(=O)[C@@H]1CCCN1C(=O)[C@H](N)Cc1ccc(Cl)c(Cl)c1)C2 (some centres unmarked),169 to 172 °C
